Reference: ChEMBL document CHEMBL3217594, “Structureactivity relationships of methyl-lysine reader antagonists” (Medchemcomm, 2012)
The source made the active and inactive calls. The calls are words filed in the database; no cut-off is given here.

Experiments:
[1] = molecular target: TP53-binding protein 1 (Homo sapiens) (UniProt Q12888); test: Effect on GST-fused 53BP1 Tudor domain (unknown origin)/biotinylated H4K20Me1 peptide interaction assessed as binding of 53BP1 to H4K20Me1 at 5 uM by pull down assay based western blot analysis
Chain of TP53-binding protein 1 (Homo sapiens) (Q12888 whole entry, the tested form may be a part): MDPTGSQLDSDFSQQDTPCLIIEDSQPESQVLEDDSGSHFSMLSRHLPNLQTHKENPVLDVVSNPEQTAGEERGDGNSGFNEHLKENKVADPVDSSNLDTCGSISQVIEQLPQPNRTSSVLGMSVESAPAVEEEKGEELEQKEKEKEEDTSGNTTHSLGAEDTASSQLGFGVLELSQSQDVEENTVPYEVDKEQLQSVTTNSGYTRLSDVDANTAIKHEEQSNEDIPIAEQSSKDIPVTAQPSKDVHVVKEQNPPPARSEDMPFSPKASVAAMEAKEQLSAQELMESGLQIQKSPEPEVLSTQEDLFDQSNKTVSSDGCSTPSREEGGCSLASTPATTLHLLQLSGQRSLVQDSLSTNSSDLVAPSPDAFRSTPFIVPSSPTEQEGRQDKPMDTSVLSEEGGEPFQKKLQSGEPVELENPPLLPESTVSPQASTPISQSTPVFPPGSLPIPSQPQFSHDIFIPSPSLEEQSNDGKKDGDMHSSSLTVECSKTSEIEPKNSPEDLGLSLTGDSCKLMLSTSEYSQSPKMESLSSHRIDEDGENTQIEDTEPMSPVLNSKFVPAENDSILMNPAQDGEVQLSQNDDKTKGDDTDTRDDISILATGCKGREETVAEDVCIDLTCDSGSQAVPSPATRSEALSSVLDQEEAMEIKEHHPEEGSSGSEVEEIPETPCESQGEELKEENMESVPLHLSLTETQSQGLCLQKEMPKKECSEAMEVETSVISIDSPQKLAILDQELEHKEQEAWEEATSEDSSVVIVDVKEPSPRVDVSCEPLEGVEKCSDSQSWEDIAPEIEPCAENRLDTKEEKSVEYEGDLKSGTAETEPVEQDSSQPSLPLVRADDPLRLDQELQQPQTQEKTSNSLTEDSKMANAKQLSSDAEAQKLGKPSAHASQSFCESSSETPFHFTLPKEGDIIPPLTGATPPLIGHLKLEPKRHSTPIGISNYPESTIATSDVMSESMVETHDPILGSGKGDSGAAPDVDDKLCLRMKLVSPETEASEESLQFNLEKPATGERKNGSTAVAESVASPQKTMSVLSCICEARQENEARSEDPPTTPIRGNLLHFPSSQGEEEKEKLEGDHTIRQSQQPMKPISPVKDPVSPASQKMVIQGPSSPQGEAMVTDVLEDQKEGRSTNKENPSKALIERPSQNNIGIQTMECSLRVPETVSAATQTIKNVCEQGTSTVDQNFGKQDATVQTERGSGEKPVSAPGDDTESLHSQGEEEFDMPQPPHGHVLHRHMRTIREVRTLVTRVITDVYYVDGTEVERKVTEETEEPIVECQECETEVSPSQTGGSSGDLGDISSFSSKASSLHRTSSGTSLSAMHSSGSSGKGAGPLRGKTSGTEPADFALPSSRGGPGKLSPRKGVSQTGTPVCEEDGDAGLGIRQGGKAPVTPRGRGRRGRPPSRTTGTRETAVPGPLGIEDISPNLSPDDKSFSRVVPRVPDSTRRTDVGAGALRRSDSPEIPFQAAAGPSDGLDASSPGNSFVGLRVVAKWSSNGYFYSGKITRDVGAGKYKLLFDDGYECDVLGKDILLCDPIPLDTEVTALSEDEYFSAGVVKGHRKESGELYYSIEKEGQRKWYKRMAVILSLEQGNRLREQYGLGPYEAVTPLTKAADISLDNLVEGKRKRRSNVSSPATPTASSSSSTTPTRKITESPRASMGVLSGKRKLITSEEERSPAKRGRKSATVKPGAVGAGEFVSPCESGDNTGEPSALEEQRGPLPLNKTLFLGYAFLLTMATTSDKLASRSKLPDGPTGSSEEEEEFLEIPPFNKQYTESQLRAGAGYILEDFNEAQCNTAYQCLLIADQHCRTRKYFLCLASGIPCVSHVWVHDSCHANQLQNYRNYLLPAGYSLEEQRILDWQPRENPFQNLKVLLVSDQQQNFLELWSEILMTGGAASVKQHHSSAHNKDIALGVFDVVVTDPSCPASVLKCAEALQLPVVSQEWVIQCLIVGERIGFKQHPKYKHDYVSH

[2] = molecular target: TP53-binding protein 1 (Homo sapiens) (UniProt Q12888); test: Effect on GST-fused 53BP1 Tudor domain (unknown origin)/biotinylated H4K20Me1 peptide interaction assessed as binding of 53BP1 to H4K20Me1 at 25 uM by pull down assay based western blot analysis
[3] = system: T1, Lethal(3)malignant brain tumor-like protein 1 (Homo sapiens), Q9Y468 [D355N]; details: 5 to 25 uM
T1 sequence (whole entry): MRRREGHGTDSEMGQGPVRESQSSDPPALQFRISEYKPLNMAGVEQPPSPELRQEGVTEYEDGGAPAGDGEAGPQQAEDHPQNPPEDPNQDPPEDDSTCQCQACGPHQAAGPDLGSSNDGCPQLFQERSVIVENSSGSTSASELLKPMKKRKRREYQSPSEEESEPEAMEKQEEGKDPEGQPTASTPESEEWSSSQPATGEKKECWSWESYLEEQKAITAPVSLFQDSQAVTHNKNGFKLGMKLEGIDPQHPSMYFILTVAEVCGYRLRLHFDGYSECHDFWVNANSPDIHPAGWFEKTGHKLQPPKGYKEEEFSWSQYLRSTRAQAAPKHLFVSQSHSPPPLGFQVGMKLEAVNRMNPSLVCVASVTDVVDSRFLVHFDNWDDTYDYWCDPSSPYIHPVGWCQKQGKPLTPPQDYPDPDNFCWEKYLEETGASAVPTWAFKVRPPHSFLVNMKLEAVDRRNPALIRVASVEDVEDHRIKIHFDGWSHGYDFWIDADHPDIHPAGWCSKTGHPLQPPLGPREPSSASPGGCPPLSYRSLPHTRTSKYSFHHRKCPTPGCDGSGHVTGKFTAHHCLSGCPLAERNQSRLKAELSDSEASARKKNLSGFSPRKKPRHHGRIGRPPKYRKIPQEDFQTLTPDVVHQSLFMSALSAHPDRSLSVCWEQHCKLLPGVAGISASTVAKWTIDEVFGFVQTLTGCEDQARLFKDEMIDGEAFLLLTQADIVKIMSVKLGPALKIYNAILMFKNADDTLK
Description: Inhibition of GST-fused L3MBTL1 3xMBT-D355N mutant (unknown origin)/biotinylated H4K20Me1 peptide interaction at 5 to 25 uM by pull down assay based western blot analysis

| Activity [1] | Activity [2] | Compound | inhibition [3] |
| --- | --- | --- | --- |
| 124% | 106% | O=C(c1cccc(Br)c1)N1CCC(N2CCCC2)CC1 | inactive |
| 120% | 91% | O=C(c1cccc(Br)c1)N1CCC(N2CCCCC2)CC1 | inactive |
